# Data from patent US6323001A, “Increasing the trehalose content of organisms by transforming them with combinations of the structural genes for trehalose synthase” (BTG International Ltd., priority 1994, dated 2001).
# Read-outs that look alike come from different tables or passages of the source.
# Key:
# [1] = biological target: T1, Tre6P synthase activity of intact trehalose synthase (Saccharomyces cerevisiae, UniProt Q00764); experiment: Tre6P synthase assay of intact trehalose synthase; assay type: biochemical, baker's yeast; conditions: for EC50: read-out: K1/2 of activation by F6P; for Tre6P synthase activity, Intact Enzyme: 10 mM G6P, 5 mM UDPG, 5 mM F6P, without phosphate = 100%
# T1 construct: Intact trehalose synthase was purified from commercial baker's yeast; made in house; host or cells: commercial baker's yeast (native enzyme purified, not recombinant)
# Procedure: (§1) With microbial materials, Tre6Pase and Tre6P synthase standard assays and other kinetic measurements were made as described by Londesborough & Vuorio [(1991) loc. cit.] except that the standard Tre6P synthase assay mixture contained 5 mM F6P unless stated otherwise.
# Removal of the N-terminal 325 or so amino acids from the 123 kDa long chain of intact trehalose synthase by treatment with trypsin in vitro produces an enzyme with catalytic properties like those of the truncated enzyme purified by Londesborough & Vuorio [(1991) loc. cit.]. In one experiment intact trehalose synthase (0.28 Tre6P synthase units, ≈9.4 μg) was incubated with or without 0.5 μg of trypsin at 30° C. in 250 μl of 13 mM HEPES pH 7.0 containing 1 mM MgCl2, 0.5 mM EDTA, 0.5 mM dithiothreitol, 0.2 M NaCl and 0.5 mM benzamidine. Its Tre6P synthase activity was determined at intervals using standard assay mixtures (containing 5 mM F6P) containing no or 4 mM K phosphate pH 6.8, and samples were prepared for SDS-PAGE analysis immediately before and 48 min after addition of the trypsin.
# (§2) Truncated trehalose synthase was prepared as described by Londesborough & Vuorio [(1991) loc. cit.] and contained the 57 kDa short chain and 86 and 93 kDa fragments of the long chain. Intact trehalose synthase was prepared as in Example 1. Kinetic assays were done at 30° C. as described in General Methods and Materials.
# [2] = biological target: Tre6Pase activity of truncated trehalose synthase (Saccharomyces cerevisiae, UniProt P31688); experiment: Tre6Pase assay of truncated trehalose synthase; assay type: biochemical, baker's yeast
# Procedure: as §1
# Truncated trehalose synthase containing the short (57 kDa) chain and the 86 and 93 kDa long chain fragments was prepared according to the method of Londesborough & Vuorio (1991) loc. cit.] for proteolytically activated TPS/P complex. Tre6P synthase and Tre6Pase activities were assayed as described by Londesborough & Vuorio [(1991) loc. cit.]. [N-ethyl-1-^14C]-maleimide (ethyl-labelled NEM; 40 mCi/mmol) was NEC-454 from New England Nuclear. N-ethyl-[2,3-^14 C]-maleimide (ring-labelled NEM; 6 mCi/mmol) was CFA 293 from Amersham International. Both were obtained as solutions in n-pentane and the manufacturer's stated specific activities were assumed to be correct. Unlabelled N-ethyl-maleimide (NEM) was E-3876 from Sigma. It was dissolved in 25 mM HEPES pH 7.0 immediately before use and standardized by absorption measurements at 305 nm, assuming an E^mM of 0.62.
# In one experiment, 2.0 μl of 2.4 mM ethyl-labelled NEM was mixed with 150 μl of gel-filtered enzyme and incubated at 23° C. Samples (10 μl) taken at various times up to 190 min were mixed with 60 μl of Laemmli sample buffer (the mercapto-ethanol in this buffer should destroy residual NEM), boiled for 5 min and subjected to SDS-PAGE. At closely similar times (and also at 23 h) other samples (10 μl) were mixed with 100 μl (for Tre6P synthase) or 700 μl (for Tre6Pase) of 5 mg BSA/ml 25 mM HEPES pH 7.0 containing 2 mM MgCl2, 1 mM EDTA, 0.2 M NaCl and 1 mM dithiothreitol (the dithiothreitol should destroy residual NEM) and assayed for Tre6P synthase and Tre6Pase.
# as §2
# Tre6Pase activity of truncated trehalose synthase, sequence (P31688 whole entry, the tested form may be a part): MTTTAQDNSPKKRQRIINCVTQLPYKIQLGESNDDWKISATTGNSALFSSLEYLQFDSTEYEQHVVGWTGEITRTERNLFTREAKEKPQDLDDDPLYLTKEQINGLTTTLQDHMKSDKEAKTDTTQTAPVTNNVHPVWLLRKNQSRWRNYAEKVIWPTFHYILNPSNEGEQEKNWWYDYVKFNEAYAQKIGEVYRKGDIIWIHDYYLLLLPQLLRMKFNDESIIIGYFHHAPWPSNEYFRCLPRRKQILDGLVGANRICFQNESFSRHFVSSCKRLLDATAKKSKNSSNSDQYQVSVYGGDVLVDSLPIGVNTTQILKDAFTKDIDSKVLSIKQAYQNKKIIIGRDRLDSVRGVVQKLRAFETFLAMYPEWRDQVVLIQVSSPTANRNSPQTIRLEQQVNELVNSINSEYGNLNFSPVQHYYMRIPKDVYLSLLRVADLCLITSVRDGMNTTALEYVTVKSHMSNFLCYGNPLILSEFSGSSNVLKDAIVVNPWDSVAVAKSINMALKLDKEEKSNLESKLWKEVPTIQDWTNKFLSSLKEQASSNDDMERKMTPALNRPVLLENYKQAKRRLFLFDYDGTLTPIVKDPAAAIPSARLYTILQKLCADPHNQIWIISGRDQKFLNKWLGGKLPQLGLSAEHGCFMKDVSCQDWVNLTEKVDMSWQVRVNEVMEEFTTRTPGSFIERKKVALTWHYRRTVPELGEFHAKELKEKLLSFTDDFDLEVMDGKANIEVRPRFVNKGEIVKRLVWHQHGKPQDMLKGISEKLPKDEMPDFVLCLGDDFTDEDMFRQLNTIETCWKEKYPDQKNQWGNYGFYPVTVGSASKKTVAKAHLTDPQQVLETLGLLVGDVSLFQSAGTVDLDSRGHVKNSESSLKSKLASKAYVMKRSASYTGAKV
# Tre6Pase activity of truncated trehalose synthase, sequence (Q00764 whole entry, further chain, the tested form may be a part): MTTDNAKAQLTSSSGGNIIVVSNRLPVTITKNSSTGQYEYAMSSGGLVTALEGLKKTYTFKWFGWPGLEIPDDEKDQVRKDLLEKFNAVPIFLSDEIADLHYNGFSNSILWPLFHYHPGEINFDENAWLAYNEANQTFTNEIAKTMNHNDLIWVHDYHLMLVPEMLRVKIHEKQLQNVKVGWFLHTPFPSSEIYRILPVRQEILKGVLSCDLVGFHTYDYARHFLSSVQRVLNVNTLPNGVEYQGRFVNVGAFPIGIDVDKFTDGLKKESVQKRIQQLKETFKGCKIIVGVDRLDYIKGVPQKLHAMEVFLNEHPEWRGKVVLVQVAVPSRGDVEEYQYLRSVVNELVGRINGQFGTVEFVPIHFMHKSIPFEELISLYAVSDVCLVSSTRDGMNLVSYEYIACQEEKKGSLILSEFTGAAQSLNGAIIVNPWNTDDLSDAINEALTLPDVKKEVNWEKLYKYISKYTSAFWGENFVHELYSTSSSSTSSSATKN
# Tre6Pase activity of truncated trehalose synthase, sequence (P38427 336-1098, further chain): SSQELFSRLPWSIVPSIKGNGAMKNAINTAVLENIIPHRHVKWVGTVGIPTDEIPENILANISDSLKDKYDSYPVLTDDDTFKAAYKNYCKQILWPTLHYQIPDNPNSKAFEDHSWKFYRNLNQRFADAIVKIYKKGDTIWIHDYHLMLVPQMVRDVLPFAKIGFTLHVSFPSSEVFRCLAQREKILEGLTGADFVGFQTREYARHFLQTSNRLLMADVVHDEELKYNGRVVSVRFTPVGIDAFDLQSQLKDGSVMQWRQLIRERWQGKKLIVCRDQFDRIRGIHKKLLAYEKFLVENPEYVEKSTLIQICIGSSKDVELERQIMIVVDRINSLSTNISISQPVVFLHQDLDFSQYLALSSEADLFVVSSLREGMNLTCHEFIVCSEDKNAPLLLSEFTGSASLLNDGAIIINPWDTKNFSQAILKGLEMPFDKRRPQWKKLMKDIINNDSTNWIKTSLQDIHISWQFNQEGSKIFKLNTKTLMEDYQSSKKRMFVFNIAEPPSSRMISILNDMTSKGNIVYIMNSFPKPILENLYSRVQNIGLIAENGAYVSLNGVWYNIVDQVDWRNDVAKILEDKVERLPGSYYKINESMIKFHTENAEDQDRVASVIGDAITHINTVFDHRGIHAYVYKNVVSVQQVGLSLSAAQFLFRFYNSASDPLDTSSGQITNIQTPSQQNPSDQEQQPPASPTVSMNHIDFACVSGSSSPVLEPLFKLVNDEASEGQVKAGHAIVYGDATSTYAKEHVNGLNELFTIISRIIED
# T1 sequence (P31688 whole entry): as the sequence (P31688 whole entry, the tested form may be a part) above
# T1 sequence (P38427 whole entry, further chain): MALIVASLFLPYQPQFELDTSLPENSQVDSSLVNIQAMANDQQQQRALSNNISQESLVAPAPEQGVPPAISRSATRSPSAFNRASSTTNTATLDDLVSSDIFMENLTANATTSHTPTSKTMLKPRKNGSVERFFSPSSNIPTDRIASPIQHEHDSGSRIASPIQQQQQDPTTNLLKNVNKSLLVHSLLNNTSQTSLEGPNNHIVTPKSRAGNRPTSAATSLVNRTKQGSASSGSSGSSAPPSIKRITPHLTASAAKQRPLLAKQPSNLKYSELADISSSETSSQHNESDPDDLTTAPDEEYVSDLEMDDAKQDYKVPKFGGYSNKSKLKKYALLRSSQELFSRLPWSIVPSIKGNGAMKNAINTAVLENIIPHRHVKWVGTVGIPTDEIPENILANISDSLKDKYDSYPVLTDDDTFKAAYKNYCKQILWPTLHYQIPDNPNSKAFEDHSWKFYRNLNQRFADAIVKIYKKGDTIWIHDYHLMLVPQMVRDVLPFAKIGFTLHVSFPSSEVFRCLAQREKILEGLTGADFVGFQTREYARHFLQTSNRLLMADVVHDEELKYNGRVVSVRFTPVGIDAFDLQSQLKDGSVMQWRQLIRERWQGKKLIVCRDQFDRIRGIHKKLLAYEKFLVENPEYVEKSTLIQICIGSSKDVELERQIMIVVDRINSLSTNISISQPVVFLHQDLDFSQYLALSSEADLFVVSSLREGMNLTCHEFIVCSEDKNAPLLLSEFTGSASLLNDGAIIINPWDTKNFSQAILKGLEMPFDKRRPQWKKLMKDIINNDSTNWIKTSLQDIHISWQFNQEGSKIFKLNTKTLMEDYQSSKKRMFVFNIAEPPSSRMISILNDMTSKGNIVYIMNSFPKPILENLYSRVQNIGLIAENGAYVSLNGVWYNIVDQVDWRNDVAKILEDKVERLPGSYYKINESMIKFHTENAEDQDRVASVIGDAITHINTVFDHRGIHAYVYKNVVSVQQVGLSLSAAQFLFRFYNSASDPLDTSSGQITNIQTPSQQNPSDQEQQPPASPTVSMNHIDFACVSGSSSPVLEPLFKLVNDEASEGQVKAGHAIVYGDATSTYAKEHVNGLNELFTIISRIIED
# T1 sequence (Q00764 whole entry): as the sequence (Q00764 whole entry, further chain, the tested form may be a part) above
structure (smiles),measurement,setting,value
"O=C(CO)[C@@H](O)[C@H](O)[C@H](O)COP(=O)(O)O [Transformant F6P, Fructose 6-phosphate]",EC50,[1]; 1.3 mM phosphate,1.4 mM
same,EC50,[1]; no added phosphate,0.06 mM
same,inhibition at 5000 µM,"[2]; read-out: inhibition of Tre6Pase activity, 5 mM F6P, saturating phosphate concentrations, truncated enzyme",10 to 15%
same,inhibition at 5000 µM,"[2]; read-out: inhibition of Tre6Pase activity, 5 mM F6P, sub-optimal phosphate concentrations, truncated enzyme",20 to 30%
"O=P(O)(O)O [phosphate, K phosphate]","Tre6P synthase activity, Intact Enzyme",[1]; 1.3 mM added K phosphate pH 6.8,69%
same,"Tre6P synthase activity, Intact Enzyme",[1]; 4.0 mM added K phosphate pH 6.8,14%
same,EC50,"[2]; initial rates, truncated enzyme, read-out: K1/2 of activation of Tre6Pase by phosphate",3 mM
